Measured values published in patent US20040202713A1, “Means and method for hormonal contraception” (priority 2001, published 2004).

Key:
young healthy women = test: Clinical study in contraception, sequential regimen (Example 1): vaginal ultrasonography, endogenous hormones, bleeding pattern; type: in vivo, human; conditions: 2 mg 17beta-estradiol days 1-14, then 10 mg dydrogesterone + 2 mg 17beta-estradiol days 15-28, single cycle
Text: Women who participated ill the study described in this example were all selected on the basis that they were users of ‘high’ dose monophasic ethinyl estradiol-containing combined oral contraceptives. The reasons for applying this selection criterion was that there is a dose relationship between follicular development and ethinyl estradiol whether given alone or in combination with a progestogen, i.e. less follicular development in the presence of the higher dose. Participation of the females involved in the study started at a moment of (almost) complete suppression of follicular development. This condition is not met if a person has their first day of bleeding in a natural cycle, after a tablet-free interval, or immediately after a low-dose combined oral contraceptive. A clinical study in contraception was conducted in 9 young healthy women who previously used a monophasic oral contraceptive pill with at least 30 microgram of ethinyl estradiol. The women were administered 2 mg 17beta-estradiol during days 1-14 of the cycle. From days. 15 to 28 of the cycle 10 mg dydrogesterone combined with 2 mg 17beta-estradiol was administered. The participants were followed by vaginal ultrasonography and blood sampling for endogenous hormones to assess ovarian function (ovulation-inhibition). Vaginal bleeding pattern and feeling of well being were scored by the participants.

[1] = hormone replacement therapy with 17beta-estradiol dydrogesterone (Grisar et al. 1999); cited from earlier work
[2] = compared with commercially used synthetic progestogens; cited from earlier work
humans = conditions: reported by Claassen et al., Acta Endocrinologica (1967); cited from earlier work
women [3] = test: Clinical study in contraception, combined ethinyl estradiol/dydrogesterone regimen (Example 2); type: in vivo, human; conditions: 30 μg ethinyl estradiol + 20 mg dydrogesterone daily for 24 days, then 4 days placebo; 8 women
Description: A clinical study in contraception is conducted in 8 women, who were selected on the basis of the criteria mentioned in Example 1, using 30 μg ethinyl estradiol and 20 mg dydrogesterone. The aforementioned dose is administered on a daily basis during 24 days, followed by a hormone-free period placebo's) of 4 days.

women [4] = test: Clinical study with dydrogesterone as progestogen-only preparation (Example 3); type: in vivo, human; conditions: 20 mg dydrogesterone once a day, uninterrupted for 4 months, 8 women
Description: A clinical study with dydrogesterone as a progestogen-only preparation is conducted in 8 women who were selected on the basis of the criteria mentioned in Example 1. The 8 women receive a 20 mg dosage of dydrogesterone once a day, uninterruptedly during a period of 4 months.

SMILES: CC(=O)[C@H]1CC[C@H]2[C@@H]3C=CC4=CC(=O)CC[C@@]4(C)[C@@H]3CC[C@]12C [dydrogesterone, 9β,10α-pregna-4,6-diene-3,20-dione]
- Ovulation inhibition (subjects with inhibition) (young healthy women; 9 women): 7 of the 9
- Intermenstrual bleeding (young healthy women; scored by participants): No intermenstrual bleeding was observed
- Adverse effects on blood pressure [1]: no adverse effects on blood pressure
- Estrogenic, glucocorticoid, anabolic or androgenic properties [2]: does not exhibit estrogenic, glucocorticoid, anabolic or androgenic properties
- Ovulation inhibition in humans (humans): does not inhibit ovulation in humans
- Ovulation inhibition (women [3]): ovulation inhibition is achieved
- Withdrawal bleeding (women [3]): Regular withdrawal bleeding occurs in all women
- Irregular bleeding (women [4]): some unpredictable irregular bleeding
- Menstrual flow (women [4]): reduction of the usual menstrual flow
- Ovulation inhibition (women [4]): Ovulation is inhibited
